Source: patent publication US20050101595A1, “N-containing cycloalkyl-substituted amino-thiazole derivatives and pharmaceutical compositions for inhibiting cell proliferation and methods for their use” (PFIZER INC., priority 2003, published 2005)
Structures can show the parent of a compound that is named as a salt.

How the values were obtained:
[1] = biological target: CDK2/Cyclin A (Homo sapiens, UniProt P24941); assay: Inhibition of CDK2/Cyclin A Retinoblastoma Kinase Activity; format: biochemical; conditions: for inhibition at 0.05 µM: read-out: % inhibition of CDK2 (@ 0.05 μM), compound at 0.05 μM; for Ki: apparent Ki, CDK2/proteolyzed cyclin A, Rb fragment substrate, 25 μM ATP
How it was run: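 CDK2 (10 or 19 nM), insect-cell expressed, gel-filtration purified with truncated cyclin A; Rb fragment substrate; 25 μM ATP; 10 mM HEPES pH 7.4, 10 mM MgCl2; 30° C, 60 or 75 min; EDTA stop; phosphocellulose/nitrocellulose capture, phosphorimager. % inhibition vs DMSO control, no-enzyme background subtracted.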

[2] = tested on: HCT-116 cell line; assay: Inhibition of cell growth, tetrazolium salt (MTT) assay; format: cell-based; conditions: Homo sapiens, MTT; for inhibition at 0.175 µM: HCT-116, HCT-116 cells, compound at 0.175 uM; for IC50: HCT-116, 120 h, first HCT-116 column (c4), three to five days, read-out: HCT-116 IC50
How it was run: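 Growth inhibition by MTT reduction at 540 nm (0.2 mg/mL, 4 h at 37° C, formazan dissolved in DMSO), normalized to cells given only 0.5% v/v DMSO. HCT-116 cultures in McCoy's 5A were dosed 4 h post-plating and kept three to five days at 37° C, 5% CO2.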

| inhibition at 0.05 µM [1] [%] | Ki [1] [µM] | IC50 [2] [µM] | Structure (SMILES) | inhibition at 0.175 µM [2] [%] |
| --- | --- | --- | --- | --- |
| 82 | – | – | C=CCN1CCN(CCCS(=O)(=O)N2CCC(Nc3nc(N)c(C(=O)c4c(F)cccc4F)s3)CC2)CC1 [Example V74] | 44 |
| 90 | – | – | Nc1nc(NC2CCN(S(=O)(=O)CCCN3C[C@@H]4C[C@H]3CO4)CC2)sc1C(=O)c1c(F)cccc1F [Example V143] | 34 |
| 90 | – | – | Nc1nc(NC2CCN(S(=O)(=O)CCCNCC3CCCCC3)CC2)sc1C(=O)c1c(F)cccc1F [Example V118] | 54 |
| – | 0.011 | 0.27 | COC1CCN(CCCS(=O)(=O)N2CCC(Nc3nc(N)c(C(=O)c4c(F)cccc4F)s3)CC2)CC1 [Example K59, {4-Amino-2-[(1-{[3-(4-methoxypiperidin-1-yl)propyl]sulfonyl}piperidin-4-yl)amino]-1,3-thiazol-5-yl}(2,6-difluorophenyl)methanone] | – |
| 80 | – | – | NC(=O)C1CCCN(CCCS(=O)(=O)N2CCC(Nc3nc(N)c(C(=O)c4c(F)cccc4F)s3)CC2)C1 (stereo not shown) [Example V16] | 5 |
| 84 | – | – | Cc1nnc(CCNCCCS(=O)(=O)N2CCC(Nc3nc(N)c(C(=O)c4c(F)cccc4F)s3)CC2)[nH]1 [Example V174] | 26 |
| 78 | – | – | Nc1nc(NC2CCN(S(=O)(=O)CCCNC3CCC3)CC2)sc1C(=O)c1c(F)cccc1F [Example V63] | 13 |
| 81 | – | – | Nc1nc(NC2CCN(S(=O)(=O)CCCN3CCCCCC3)CC2)sc1C(=O)c1c(F)cccc1F [Example V69] | 54 |
| 84 | – | – | CC(C)CCNCCCS(=O)(=O)N1CCC(Nc2nc(N)c(C(=O)c3c(F)cccc3F)s2)CC1 [Example V60] | 18 |
| 80 | – | – | Nc1nc(NC2CCN(S(=O)(=O)CCCN3CCCCC3CCO)CC2)sc1C(=O)c1c(F)cccc1F (stereo not shown) [Example V38] | 1 |
| 72 | – | – | CN1CCN(CCCS(=O)(=O)N2CCC(Nc3nc(N)c(C(=O)c4c(F)cccc4F)s3)CC2)CC1 [Example V35] | 17 |
| 89 | – | – | Nc1nc(NC2CCN(S(=O)(=O)CCCNCc3ccco3)CC2)sc1C(=O)c1c(F)cccc1F [Example V24] | 48 |
| – | 0.0047 | 0.07 | Nc1nc(NC2CCN(S(=O)(=O)CCCNCc3ccc(F)cc3)CC2)sc1C(=O)c1c(F)cccc1F [Example V182, (4-Amino-2-{[1-({3-[(4-fluorobenzyl)amino]propyl}sulfonyl)-4-piperidinyl]amino}-1,3-thiazol-5-yl)(2,6-difluorophenyl)methanone.] | – |
| 80 | – | – | COCC(C)NCCCS(=O)(=O)N1CCC(Nc2nc(N)c(C(=O)c3c(F)cccc3F)s2)CC1 (stereo not shown) [Example V58] | 10 |
| – | 0.008 | 2.64 | Nc1nc(NC2CCN(S(=O)(=O)CCCNc3ccccn3)CC2)sc1C(=O)c1c(F)cccc1F [Example K56, (4-Amino-2-{1-[3-(pyridin-2-ylamino)-propane-1-sulfonyl]-piperidin-4-ylamino}-thiazol-5-yl)-(2,6-difluoro-phenyl)-methanone. Trifluoroacetic Acid Salt] | – |
| 91 | – | – | Nc1nc(NC2CCN(S(=O)(=O)CCCNCc3cccs3)CC2)sc1C(=O)c1c(F)cccc1F [Example V28] | 33 |
| 84 | – | – | Nc1nc(NC2CCN(S(=O)(=O)CCCNCCCn3ccnc3)CC2)sc1C(=O)c1c(F)cccc1F [Example V3] | 17 |
| 93 | – | – | Nc1nc(NC2CCN(S(=O)(=O)CCCNCc3ncccc3O)CC2)sc1C(=O)c1c(F)cccc1F [Example V165] | 6 |
| 75 | – | – | Nc1nc(NC2CCN(S(=O)(=O)CCCNCCCO)CC2)sc1C(=O)c1c(F)cccc1F [Example V4] | 19 |
| 67 | – | – | Nc1nc(NC2CCN(S(=O)(=O)CCCNc3ccc4ccccc4n3)CC2)sc1C(=O)c1c(F)cccc1F [Example V110] | 2 |
| 81 | – | – | CCC(COC)NCCCS(=O)(=O)N1CCC(Nc2nc(N)c(C(=O)c3c(F)cccc3F)s2)CC1 (stereo not shown) [Example V97] | 28 |
| 81 | – | – | COC1CCN(CCCS(=O)(=O)N2CCC(Nc3nc(N)c(C(=O)c4c(F)cccc4F)s3)CC2)CC1 [Example V171] | 65 |

| inhibition at 0.05 µM [1] [%] | Ki [1] [µM] | IC50 [2] [µM] | Structure (SMILES) | inhibition at 0.175 µM [2] [%] |
| --- | --- | --- | --- | --- |
| 85 | – | – | Nc1nc(NC2CCN(S(=O)(=O)CCCN3CCC(O)C3)CC2)sc1C(=O)c1c(F)cccc1F (stereo not shown) [Example V68] | 10 |
| 85 | – | – | Nc1nc(NC2CCN(S(=O)(=O)CCCNc3ccccn3)CC2)sc1C(=O)c1c(F)cccc1F [Example V2] | 6 |
| 88 | – | – | Nc1nc(NC2CCN(S(=O)(=O)CCCNC3CCCCCC3)CC2)sc1C(=O)c1c(F)cccc1F [Example V159] | 8 |
| 82 | – | – | CC(C)OCCNCCCS(=O)(=O)N1CCC(Nc2nc(N)c(C(=O)c3c(F)cccc3F)s2)CC1 [Example V131] | 5 |
| 75 | – | – | CCCCN(CC#N)CCCS(=O)(=O)N1CCC(Nc2nc(N)c(C(=O)c3c(F)cccc3F)s2)CC1 [Example V119] | 0 |
| 83 | – | – | Nc1nc(NC2CCN(S(=O)(=O)CCCNc3nccc4cccnc34)CC2)sc1C(=O)c1c(F)cccc1F [Example V145] | 0 |
| 82 | – | – | CCCN(CCO)CCCS(=O)(=O)N1CCC(Nc2nc(N)c(C(=O)c3c(F)cccc3F)s2)CC1 [Example V106] | 11 |
| 87 | – | – | Nc1nc(NC2CCN(S(=O)(=O)CCCNCCc3ncn[nH]3)CC2)sc1C(=O)c1c(F)cccc1F [Example V150] | 18 |
| 80 | – | – | Nc1nc(NC2CCN(S(=O)(=O)CCCNCc3cccnc3)CC2)sc1C(=O)c1c(F)cccc1F [Example V6] | 1 |
| 22 | – | – | Nc1nc(NC2CCN(S(=O)(=O)CCCNC3CCOC3=O)CC2)sc1C(=O)c1c(F)cccc1F (stereo not shown) [Example V18] | 0 |
| 69 | – | – | Nc1nc(NC2CCN(S(=O)(=O)CCCNCCN3CCOCC3)CC2)sc1C(=O)c1c(F)cccc1F [Example V10] | 3 |
| 84 | – | – | COC(=O)C1CCN(CCCS(=O)(=O)N2CCC(Nc3nc(N)c(C(=O)c4c(F)cccc4F)s3)CC2)C1 (stereo not shown) [Example V160] | 0 |
| 77 | – | – | CCN(CC)CCCS(=O)(=O)N1CCC(Nc2nc(N)c(C(=O)c3c(F)cccc3F)s2)CC1 [Example V57] | 33 |
| 79 | – | – | Nc1nc(NC2CCN(S(=O)(=O)CCCNCC(O)CO)CC2)sc1C(=O)c1c(F)cccc1F (stereo not shown) [Example V48] | 7 |
| 86 | – | – | Nc1nc(NC2CCN(S(=O)(=O)CCCNCCc3cccnc3)CC2)sc1C(=O)c1c(F)cccc1F [Example V114] | 17 |
| 82 | – | – | Nc1nc(NC2CCN(S(=O)(=O)CCCNCc3ccccn3)CC2)sc1C(=O)c1c(F)cccc1F [Example V7] | 0 |
| 77 | – | – | CC1(C)CCCN(CCCS(=O)(=O)N2CCC(Nc3nc(N)c(C(=O)c4c(F)cccc4F)s3)CC2)C1 [Example V46] | 71 |
| 89 | – | – | CCCCC(CO)NCCCS(=O)(=O)N1CCC(Nc2nc(N)c(C(=O)c3c(F)cccc3F)s2)CC1 (stereo not shown) [Example V120] | 6 |
| 80 | – | – | Nc1nc(NC2CCN(S(=O)(=O)CCCN3CCC(CCO)CC3)CC2)sc1C(=O)c1c(F)cccc1F [Example V134] | 8 |
| 82 | – | – | CN(C)CCCCNCCCS(=O)(=O)N1CCC(Nc2nc(N)c(C(=O)c3c(F)cccc3F)s2)CC1 [Example V154] | 15 |
| 79 | – | – | C#CCN(C)CCCS(=O)(=O)N1CCC(Nc2nc(N)c(C(=O)c3c(F)cccc3F)s2)CC1 [Example V65] | 30 |
| 80 | – | – | CC1CCN(CCCS(=O)(=O)N2CCC(Nc3nc(N)c(C(=O)c4c(F)cccc4F)s3)CC2)CC1 [Example V102] | 89 |
